Data taken from PubChem BioAssay (NCI).
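GI50 is the concentration that inhibits growth by half. The concentration for full growth arrest is given as TGI.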

Key:
Experiment in all cases: growth of human tumour cells (NCI), 384-well format
T-47D breast = system: T-47D breast
SK-MEL-28 melanoma = system: SK-MEL-28 melanoma
EKVX NSCLC = system: EKVX NSCLC
NCI/ADR-RES ovarian = system: NCI/ADR-RES ovarian
SF-268 CNS = system: SF-268 CNS
OVCAR-8 ovarian = system: OVCAR-8 ovarian
HCT-15 colon = system: HCT-15 colon
OVCAR-5 ovarian = system: OVCAR-5 ovarian
HOP-62 NSCLC = system: HOP-62 NSCLC
RXF 393 renal = system: RXF 393 renal
NCI-H460 NSCLC = system: NCI-H460 NSCLC
TK-10 renal = system: TK-10 renal
M14 melanoma = system: M14 melanoma
MDA-MB-231 breast = system: MDA-MB-231 breast
HS 578T breast = system: HS 578T breast
PC-3 prostate = system: PC-3 prostate
HCT-116 colon = system: HCT-116 colon
LOX IMVI melanoma = system: LOX IMVI melanoma
SF-295 CNS = system: SF-295 CNS
MDA-MB-468 breast = system: MDA-MB-468 breast
HOP-92 NSCLC = system: HOP-92 NSCLC
SF-539 CNS = system: SF-539 CNS
MALME-3M melanoma = system: MALME-3M melanoma
MCF7 breast = system: MCF7 breast
ACHN renal = system: ACHN renal
SNB-75 CNS = system: SNB-75 CNS
U251 glioblastoma = system: U251 glioblastoma
NCI-H226 lung = system: NCI-H226 lung
786-0 renal = system: 786-0 renal
SR leukemia = system: SR leukemia
UO-31 renal = system: UO-31 renal
MDA-MB-435 melanoma = system: MDA-MB-435 melanoma
K-562 leukemia = system: K-562 leukemia
NCI-H23 lung = system: NCI-H23 lung
MOLT-4 leukemia = system: MOLT-4 leukemia
SK-MEL-2 melanoma = system: SK-MEL-2 melanoma
KM12 colon = system: KM12 colon
OVCAR-4 ovarian = system: OVCAR-4 ovarian
OVCAR-3 ovarian = system: OVCAR-3 ovarian
NCI-H522 lung = system: NCI-H522 lung
IGROV1 ovarian = system: IGROV1 ovarian
SK-MEL-5 melanoma = system: SK-MEL-5 melanoma
SN12C renal = system: SN12C renal
CCRF-CEM leukemia = system: CCRF-CEM leukemia
UACC-62 melanoma = system: UACC-62 melanoma
COLO 205 colon = system: COLO 205 colon
A498 renal = system: A498 renal

Structure (SMILES): CNC(=O)c1ccccc1Nc1nc(Nc2ccc3c(c2OC)CCC[C@H](N2CCN(CCO)CC2)C3)ncc1Cl
- GI50 (T-47D breast): 1280 nM
- TGI (T-47D breast): 2710 nM
- GI50 (SK-MEL-28 melanoma): 1390 nM
- TGI (SK-MEL-28 melanoma): 2700 nM
- GI50 (EKVX NSCLC): 236 nM
- TGI (EKVX NSCLC): 1320 nM
- GI50 (NCI/ADR-RES ovarian): 2120 nM
- TGI (NCI/ADR-RES ovarian): 4370 nM
- GI50 (SF-268 CNS): 1550 nM
- TGI (SF-268 CNS): 3020 nM
- GI50 (OVCAR-8 ovarian): 1500 nM
- TGI (OVCAR-8 ovarian): 3180 nM
- GI50 (HCT-15 colon): 533 nM
- TGI (HCT-15 colon): 1730 nM
- GI50 (OVCAR-5 ovarian): 925 nM
- TGI (OVCAR-5 ovarian): 3480 nM
- GI50 (HOP-62 NSCLC): 1430 nM
- TGI (HOP-62 NSCLC): 3170 nM
- GI50 (RXF 393 renal): 565 nM
- TGI (RXF 393 renal): 1710 nM
- GI50 (NCI-H460 NSCLC): 1140 nM
- TGI (NCI-H460 NSCLC): 2480 nM
- GI50 (TK-10 renal): 783 nM
- TGI (TK-10 renal): 2480 nM
- GI50 (M14 melanoma): 632 nM
- TGI (M14 melanoma): 1850 nM
- GI50 (MDA-MB-231 breast): 974 nM
- TGI (MDA-MB-231 breast): 2280 nM
- GI50 (HS 578T breast): 726 nM
- TGI (HS 578T breast): 2030 nM
- GI50 (PC-3 prostate): 2020 nM
- TGI (PC-3 prostate): 5060 nM
- GI50 (HCT-116 colon): 934 nM
- TGI (HCT-116 colon): 2320 nM
- GI50 (LOX IMVI melanoma): 655 nM
- TGI (LOX IMVI melanoma): 1970 nM
- GI50 (SF-295 CNS): 1710 nM
- TGI (SF-295 CNS): 3110 nM
- GI50 (MDA-MB-468 breast): 384 nM
- TGI (MDA-MB-468 breast): 1660 nM
- GI50 (HOP-92 NSCLC): 985 nM
- TGI (HOP-92 NSCLC): 2250 nM
- GI50 (SF-539 CNS): 1500 nM
- TGI (SF-539 CNS): 2930 nM
- GI50 (MALME-3M melanoma): 414 nM
- TGI (MALME-3M melanoma): 1450 nM
- GI50 (MCF7 breast): 244 nM
- TGI (MCF7 breast): 1520 nM
- GI50 (ACHN renal): 584 nM
- TGI (ACHN renal): 2120 nM
- GI50 (SNB-75 CNS): 1430 nM
- TGI (SNB-75 CNS): 3220 nM
- GI50 (U251 glioblastoma): 1430 nM
- TGI (U251 glioblastoma): 2830 nM
- GI50 (NCI-H226 lung): 686 nM
- TGI (NCI-H226 lung): 2700 nM
- GI50 ([…]-0 renal): 1160 nM
- TGI (786-0 renal): 2410 nM
- GI50 (SR leukemia): 18.6 nM
- TGI (SR leukemia): 34.7 nM
- GI50 (UO-31 renal): 1080 nM
- TGI (UO-31 renal): 2290 nM
- GI50 (MDA-MB-435 melanoma): 833 nM
- TGI (MDA-MB-435 melanoma): 3180 nM
- GI50 (K-562 leukemia): 1430 nM
- TGI (K-562 leukemia): 2820 nM
- GI50 (NCI-H23 lung): 673 nM
- TGI (NCI-H23 lung): 2320 nM
- GI50 (MOLT-4 leukemia): 1280 nM
- TGI (MOLT-4 leukemia): 2560 nM
- GI50 (SK-MEL-2 melanoma): 304 nM
- TGI (SK-MEL-2 melanoma): 1050 nM
- GI50 (KM12 colon): 955 nM
- TGI (KM12 colon): 2630 nM
- GI50 (OVCAR-4 ovarian): 1080 nM
- TGI (OVCAR-4 ovarian): 2790 nM
- GI50 (OVCAR-3 ovarian): 1180 nM
- TGI (OVCAR-3 ovarian): 2770 nM
- GI50 (NCI-H522 lung): 862 nM
- TGI (NCI-H522 lung): 2200 nM
- GI50 (IGROV1 ovarian): 800 nM
- TGI (IGROV1 ovarian): 2760 nM
- GI50 (SK-MEL-5 melanoma): 879 nM
- TGI (SK-MEL-5 melanoma): 2150 nM
- GI50 (SN12C renal): 1400 nM
- TGI (SN12C renal): 4340 nM
- GI50 (CCRF-CEM leukemia): 1860 nM
- TGI (CCRF-CEM leukemia): 3320 nM
- GI50 (UACC-62 melanoma): 673 nM
- TGI (UACC-62 melanoma): 1930 nM
- GI50 (COLO 205 colon): 283 nM
- TGI (COLO 205 colon): 960 nM
- GI50 (A498 renal): 488 nM
- TGI (A498 renal): 1700 nM
